Values quoted from earlier work in US20160208299A1, “PRODUCTION OF ISOQUINOLINE ALKALOIDS AND FLAVONOIDS IN PLANT CELL CULTURES OF GOLDENSEAL (HYDRASTIS CANADENSIS)” (DIANAPLANTSCIENCES INC., priority 2015, published 2016).

Legend:
E. coli = conditions: cells lining the walls of the urinary tract

COc1ccc2cc3[n+](cc2c1OC)CCc1cc2c(cc1-3)OCO2 [berberine]
effective: effectiveness against parasite (Entamoeba histolytica) | effectiveness against parasite (Giardia lamblia) | effectiveness against parasite (Trichomonas vaginalis) | effectiveness in treating infection by blocking the adhesion of E. coli (E. coli)
